The results in this text go back to PubChem BioAssay AID248 (DTP/NCI, 2004).

The subject of the assay is L1210 leukemia ip in BDF1 mice, survival T/C. Put plainly: NCI In Vivo Anticancer Drug Screen. Data for tumor model L1210 Leukemia (intraperitoneal) in B6D2F1 (BDF1) mice. The conditions noted are these: endpoint: mean survival time, higher = longer survival. In outline:
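Mice bearing the transplanted tumor received compound or vehicle. Survival of the treated group was divided by that of the vehicle-treated control group to give the ratio.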

Where [1] appears, read: dose: 100.0 mg/kg/injection, schedule: Q01DX001 (ip), vehicle: carboxymethylcellulose (CMC).
Setting [2] is: dose: 200.0 mg/kg/injection, schedule: Q01DX001 (ip), vehicle: carboxymethylcellulose (CMC).
Where [3] appears, read: dose: 400.0 mg/kg/injection, schedule: Q01DX001 (ip), vehicle: carboxymethylcellulose (CMC).
Setting [4] is: dose: 50.0 mg/kg/injection, schedule: Q04DX003 (ip), vehicle: Klucel (hydroxypropylcellulose) (HPC).
Setting [5] is: dose: 100.0 mg/kg/injection, schedule: Q04DX003 (ip), vehicle: saline.
Where [6] appears, read: dose: 100.0 mg/kg/injection, schedule: Q01DX009 (ip), vehicle: saline with Tween-80.
[7] abbreviates: dose: 100.0 mg/kg/injection, schedule: Q04DX003 (ip), vehicle: saline with Tween-80.
Where [8] appears, read: dose: 200.0 mg/kg/injection, schedule: Q01DX009 (ip), vehicle: saline with Tween-80.
The mark [9] stands for this setting: dose: 200.0 mg/kg/injection, schedule: Q04DX003 (ip), vehicle: saline with Tween-80.
Where [10] appears, read: dose: 400.0 mg/kg/injection, schedule: Q01DX009 (ip), vehicle: saline with Tween-80.
Where [11] appears, read: dose: 400.0 mg/kg/injection, schedule: Q04DX003 (ip), vehicle: saline with Tween-80.
Setting [12] is: dose: 100.0 mg/kg/injection, schedule: Q01DX001 (ip), vehicle: saline.
[13] abbreviates: dose: 200.0 mg/kg/injection, schedule: Q01DX001 (ip), vehicle: saline.
The mark [14] stands for this setting: dose: 400.0 mg/kg/injection, schedule: Q01DX001 (ip), vehicle: saline.

Where “and” joins values, the source holds several entries; their conditions need not be identical. Equal entries are not always repeated. Inconclusive results and toxic doses are left out.

In the case of `OCC1OC(n2ccc3c(N4CCCCC4)ncnc32)C(O)C1O` (stereo not drawn), the T/C reads like this: (dose: 50.0 mg/kg/injection, schedule: Q01DX001 (ip), vehicle: carboxymethylcellulose (CMC)) 93 % of control; under setting [1], 95 % of control; under setting [2], 98 % of control; under setting [3], 93 % of control.
With `CCc1ccc(N=Nc2ccc(N(C)C)cc2)cc1`, the T/C reads like this: under setting [4], 93 % of control; under setting [1], 110 % of control; (dose: 100.0 mg/kg/injection, schedule: Q04DX003 (ip), vehicle: Klucel (hydroxypropylcellulose) (HPC)) 96 % of control; under setting [2], 89 % of control; (dose: 200.0 mg/kg/injection, schedule: Q04DX003 (ip), vehicle: Klucel (hydroxypropylcellulose) (HPC)) 96 % of control; under setting [3], 101 % of control.
With `N#CCCNC(=O)c1ccccc1`, the T/C runs as follows: (dose: 100.0 mg/kg/injection, schedule: Q01DX001 (ip), vehicle: acetone) 107 % of control; (dose: 100.0 mg/kg/injection, schedule: Q01DX009 (ip), vehicle: acetone) 90 % of control; under setting [5], 103 % of control; (dose: 200.0 mg/kg/injection, schedule: Q01DX001 (ip), vehicle: acetone) 102 % of control; (dose: 200.0 mg/kg/injection, schedule: Q01DX009 (ip), vehicle: acetone) 92 % of control; (dose: 200.0 mg/kg/injection, schedule: Q04DX003 (ip), vehicle: saline) 94 % of control. The T/C is 102 % of control (dose: 400.0 mg/kg/injection, schedule: Q01DX001 (ip), vehicle: acetone); 90 % of control (dose: 400.0 mg/kg/injection, schedule: Q01DX009 (ip), vehicle: acetone); 101 % of control (dose: 400.0 mg/kg/injection, schedule: Q04DX003 (ip), vehicle: saline).
`CC1OC(=O)N(CCc2ccncc2)C1=O` (stereo not drawn): the T/C is 93 % of control (dose: 100.0 mg/kg/injection, schedule: Q04DX002 (ip), vehicle: saline); 93 % of control (dose: 200.0 mg/kg/injection, schedule: Q04DX002 (ip), vehicle: saline); 97 % of control (dose: 400.0 mg/kg/injection, schedule: Q04DX002 (ip), vehicle: saline).
As to `CCCCN(C)/N=N/c1[nH]ncc1C(=O)OC`, the T/C is, setting by setting: (dose: 268.0 mg/kg/injection, schedule: Q01DX007 (ip), vehicle: other) 150 % of control; (dose: 600.0 mg/kg/injection, schedule: Q01DX007 (ip), vehicle: other) 88 % of control.
For `COC(=O)c1cccc(O)c1O`, the T/C by setting is: (dose: 100.0 mg/kg/injection, schedule: Q01DX005 (ip), vehicle: other) 96 % of control; (dose: 100.0 mg/kg/injection, schedule: Q01DX009 (ip), vehicle: other) 114 % of control; (dose: 200.0 mg/kg/injection, schedule: Q01DX005 (ip), vehicle: other) 100 % of control; (dose: 200.0 mg/kg/injection, schedule: Q01DX009 (ip), vehicle: other) 107 % of control; (dose: 400.0 mg/kg/injection, schedule: Q01DX005 (ip), vehicle: other) 104 % of control; (dose: 400.0 mg/kg/injection, schedule: Q01DX009 (ip), vehicle: other) 88 % of control.
Consider `O=C(NC(=S)Nc1cccc2c(O)cccc12)c1ccc(Cl)cc1Cl`, for which the T/C runs as follows: (dose: 100.0 mg/kg/injection, schedule: Q01DX001 (ip), vehicle: saline with Tween-80) 105 % of control; under setting [6], 98 % of control and 90 % of control; (dose: 100.0 mg/kg/injection, schedule: Q04DX002 (ip), vehicle: saline with Tween-80) 95 % of control and 98 % of control; under setting [7], 103 % of control; (dose: 200.0 mg/kg/injection, schedule: Q01DX001 (ip), vehicle: saline with Tween-80) 103 % of control; under setting [8], 97 % of control and 117 % of control. The T/C is 101 % of control and 106 % of control (dose: 200.0 mg/kg/injection, schedule: Q04DX002 (ip), vehicle: saline with Tween-80); 92 % of control under setting [9]; 106 % of control (dose: 400.0 mg/kg/injection, schedule: Q01DX001 (ip), vehicle: saline with Tween-80); 94 % of control and 98 % of control under setting [10]; 95 % of control and 90 % of control (dose: 400.0 mg/kg/injection, schedule: Q04DX002 (ip), vehicle: saline with Tween-80); 94 % of control under setting [11].
`C[n+]1c(O)c(C(=O)CCl)n2ccccc21`: the T/C runs as follows: (dose: 100.0 mg/kg/injection, schedule: Q01DX009 (ip), vehicle: saline) 94 % of control; (dose: 200.0 mg/kg/injection, schedule: Q01DX009 (ip), vehicle: saline) 91 % of control; (dose: 400.0 mg/kg/injection, schedule: Q01DX009 (ip), vehicle: saline) 92 % of control.
With `COc1ccc(/C=N/O)c(C)c1OC`, the T/C runs as follows: under setting [12], 98 % of control; under setting [13], 96 % of control; under setting [14], 96 % of control.
Consider `C=C(C(N)=O)c1cc(Cl)ccc1Cl`, for which the T/C runs as follows: under setting [6], 96 % of control; under setting [7], 103 % of control; under setting [8], 92 % of control; under setting [9], 101 % of control; under setting [10], 92 % of control; under setting [11], 94 % of control.
As for `COc1ccc(C(=O)NC[n+]2ccccc2)cc1`, the T/C reads like this: (dose: 25.0 mg/kg/injection, schedule: Q01DX009 (ip), vehicle: saline) 93 % of control; (dose: 25.0 mg/kg/injection, schedule: Q04DX003 (ip), vehicle: saline) 86 % of control; (dose: 50.0 mg/kg/injection, schedule: Q01DX009 (ip), vehicle: saline) 98 % of control; (dose: 50.0 mg/kg/injection, schedule: Q04DX003 (ip), vehicle: saline) 93 % of control; under setting [5], 99 % of control.
Regarding `O=C(O)CNC(=O)c1ccccc1C(=O)NCC(=O)OCc1ccccc1`, the T/C runs as follows: (dose: 50.0 mg/kg/injection, schedule: Q01DX001 (ip), vehicle: saline) 94 % of control; under setting [12], 91 % of control; under setting [13], 91 % of control; under setting [14], 97 % of control.
Turning to `CCCCCCCCCCCC(=O)NC(CCC(=O)O)C(=O)O` (stereo not drawn), the T/C by setting is: under setting [12], 111 % of control; under setting [13], 103 % of control; under setting [14], 105 % of control.
On to `O=C1OC(c2cccc(Cl)c2)=N/C1=C\c1cccc2ccccc12`, for which the T/C (dose: 100.0 mg/kg/injection, schedule: Q01DX009 (ip), vehicle: Klucel (hydroxypropylcellulose) (HPC)) is 90 % of control; the T/C (dose: 200.0 mg/kg/injection, schedule: Q01DX009 (ip), vehicle: Klucel (hydroxypropylcellulose) (HPC)) was 90 % of control; the T/C (dose: 400.0 mg/kg/injection, schedule: Q01DX009 (ip), vehicle: Klucel (hydroxypropylcellulose) (HPC)) was 96 % of control.
As for `O=C(CCCCCCCC(=O)Nc1cc(C2=NCCN2)cc(C2=NCCN2)c1)Nc1cc(C2=NCCN2)cc(C2=NCCN2)c1`, the T/C (dose: 12.0 mg/kg/injection, schedule: Q01DX Z (ip), vehicle: carboxymethylcellulose (CMC)) is 105 % of control.
In the case of `O=C1NC(=O)C2(CCCCC2)N1`, the T/C (dose: 6.25 mg/kg/injection, schedule: Q04DX003 (ip), vehicle: Klucel (hydroxypropylcellulose) (HPC)) is 94 % of control; the T/C (dose: 12.5 mg/kg/injection, schedule: Q01DX009 (ip), vehicle: Klucel (hydroxypropylcellulose) (HPC)) is 95 % of control; the T/C (dose: 12.5 mg/kg/injection, schedule: Q04DX003 (ip), vehicle: Klucel (hydroxypropylcellulose) (HPC)) is 94 % of control; the T/C (dose: 25.0 mg/kg/injection, schedule: Q01DX009 (ip), vehicle: Klucel (hydroxypropylcellulose) (HPC)) is 96 % of control; the T/C (dose: 25.0 mg/kg/injection, schedule: Q04DX003 (ip), vehicle: Klucel (hydroxypropylcellulose) (HPC)) was 87 % of control and 97 % of control; the T/C (dose: 50.0 mg/kg/injection, schedule: Q01DX009 (ip), vehicle: Klucel (hydroxypropylcellulose) (HPC)) was 100 % of control. The T/C under setting [4] was 96 % of control and 101 % of control; the T/C (dose: 75.0 mg/kg/injection, schedule: Q01DX009 (ip), vehicle: Klucel (hydroxypropylcellulose) (HPC)) was 102 % of control.
